Test results published in patent US20230303604A1, “METALLIC TRANS-(N-HETEROCYCLIC CARBENE)-AMINE-PLATINUM COMPLEXES AND USES THEREOF FOR TREATING CANCER” (INSTITUT CURIE, priority 2020, published 2023).

Assays:
Format in all cases: cell-based
[1] = test system: A2780cis (A2780/DDP) cells; assay: Cell proliferation evaluation on cisplatin-resistant A2780cis; details: for ability to counteract the cisplatin resistance: A780cis cell line
Experimental: (§1) Cell culture. The A2780 ovarian carcinoma cell lines were purchased from ECACC (Salisbury, UK) and were grown in complete RPMI medium supplemented with 10% fetal calf serum, in the presence of penicillin, streptomycin. The resistance of A2780/DDP cells to cisplatin was maintained by monthly treatment with 1 μM cisplatin for 4 days. H1299 Non Small Cell Lung Carcinoma (ATCC® CRL-5803™) and were grown in RPMI medium supplemented with 10% fetal calf serum, 1% HEPES, 1% Sodium Pyruvate in the presence of penicillin and streptomycin. In addition, four cervical cancerous cell lines, already resistant to some conventional chemotherapy (Gemcitabin, methothrexate, vinorelbin and/or cisplatin) were chosen: IC5 (from Institut Curie), CRL1550 (ATCC® CRL1550™), CC11^+ (Cellosaurus CVCL_DF82) and CRL7920 (ATCC® CRL7920™). They were grown in complete RPMI medium supplemented with 10% fetal calf serum, in the presence of penicillin, streptomycin.
Cell proliferation evaluation. Cells were treated with various concentrations of NHC-Pt, at 37° C. under humidity and 5% CO2 conditions for 96 h. Cellular growth was quantified using the Moxi Z Mini automated cell counter (Orflox technology). CellTiter Glo® Luminescent Cell Viability Assay following the kit instructions (Promega) was also used. But since doses that inhibit 50% of cell proliferation (IC50) not always correlated to the number of cells, as previously observed (Uehara, T., Mitsuhashi, A., Tsuruoka, N., and Shozu, M. (2015) Metformin potentiates the anticancer effects of cisplatin under normoxic conditions in vitro, Oncology reports 33, 744-750), cell counting was privileged. […]

A2780 cell lines = assay: Radiosensitization assay on A2780; details: A2780, 1 μM complex, 1 day pretreatment, D10 six days post-irradiation
Experimental: (§2) For one day or 10 min pretreatment, cells were seeded at a number allowing 5 doubling populations growth without reaching confluence in the untreated samples. They were then pretreated during the time indicated at the indicated NHC-Pt concentrations, irradiated at 1, 2, 3 and 4 Gy for A2780 cell lines and 2. 4. 6 and 8 Gy for H1299 and allow growing until 6 days. IC5 cells were irradiated at 1, 2, 3, 4 and 5 Gy, CC11^+ were irradiated at 2, 3, 4, 5 and 6 Gy and allow growing until 7 days, CRL1550 were irradiated at 2, 4, 6 and 8 Gy and allow growing until 5 days. CRL79200 were irradiated at 1, 2, 3 and 4 Gy and allow growing until 15 days. For 4 days pretreatment, cells were seeding in the conditions of cell cytotoxicity determination, trypsinised, seeded at a number allowing 5 doubling population growth without reaching confluence in the untreated samples and treated one day before irradiation. Irradiation is using GSR D1 irradiator (gamma-ray, 662 keV). The cells were left to grow for 6 days to allow at least 5 population doublings. Cell count of each well is taken and a graph is plotted with the percentage survival of each treatment of cells with its control (0 Gy). […]
(§3) All the complexes were first evaluated for their radiosensitizing properties on A2780 and H1299 cell lines. […] The D10 doses were evaluated as the doses allowing 10% survival six days post-irradiation. […]

A2780 cells = assay: Immunofluorescence assay, DNA damage repair kinetics (γ-H2AX and 53BP1 foci); details: A2780, 2 Gy, 2 h and 6 h post irradiation, 1 day pre-treatment
Experimental: Immunofluorescence Assays. A2780 cells were plated on coverslips in 6-well plates. After 1 day of incubation with the various NHC-Pt at their RS doses, cells were irradiated at 2 Gys, incubated the time indicated post-irradiation, washed with phosphate-buffered saline (PBS), then fixed 10 minutes in 4% formaldehyde. After a wash with PBS, cells were permeabilised 2 min using 0.5% Triton X-100 and is washed with PBS. The cells were incubated in blocking buffer (5% bovine serum albumin in PBS) for 30 min before being incubated for 1 h with the primary mouse monoclonal antibody against g-H2AX (milipore) or 53BP1. After three washes with PBS, the cells were incubated for an additional 1 h with the Alexa Fluor 488-conjugated secondary antibody (Alexa Fluor 488 goat anti-mouse IgG; Life Technologies). Nuclei were labeled using DAPI and the coverslides were mounted with Vectashield™. Acquisitions were performed on a3D-dev or 3D-SIM in the microscopy platform from Institut Curie. ImageJ software ([…]) was used to project the z-stacks and count the number of g-H2AX or 53BP1 spots as well as their intensity and size in nuclei. […]
The inventors analyzed, by immunofluorescence, the γ-H2AX and 53BP1 foci, γ-H2AX being a DNA damage sensor and 53BP1 being a DNA repair sensor at different time post-irradiation (0.5-24 h).

H1299 cell lines = assay: Radiosensitization assay on H1299; details: H1299, 1 μM complex, 1 day pretreatment, D10 six days post-irradiation
Experimental: as §2, §3

[2] = test system: cervical cancerous cell lines (IC5, CC11^+, CRL1550, CRL7920); assay: Cell proliferation evaluation, statements over the cervical cancerous cell lines; details: three cervical cancerous cell lines
Experimental: as §1
(§4) Cell proliferation evaluation. Cells were treated with various concentrations of NHC-Pt, at 37° C. under humidity and 5% CO2 conditions for 96 h. Cellular growth was quantified using the Moxi Z Mini automated cell counter (Orflox technology). CellTiter Glo® Luminescent Cell Viability Assay following the kit instructions (Promega) was also used. […]

[3] = test system: CC11^+ cervical cancerous cell line; assay: Cell proliferation evaluation on CC11+; details: 4 days treatment
Experimental: as §1, §4

[4] = test system: CRL1550 cervical cancerous cell line; assay: Cell proliferation evaluation on CRL1550; details: CRL1550, 4 days treatment
Experimental: as §1, §4

[5] = test system: A2780 ovarian carcinoma cell lines; assay: Cell proliferation evaluation (cell counting) on A2780; details: A2780, 4 days (96 h) treatment
Experimental: as §1, §4

[6] = test system: IC5 cervical cancerous cell line; assay: Cell proliferation evaluation on IC5; details: IC5, 4 days treatment
Experimental: as §1, §4

Structure (SMILES) | ability to counteract the cisplatin resistance [1] | radiosensitizing properties at 1 μM (A2780 cell lines) | radiosensitizing properties at 1 μM (H1299 cell lines) | cytotoxic activity as compared to C2 [2] | further results
CN1C=CN(CCCCCCN2C=CN(C)[CH]2[Pt]([NH2])([I])[I])[CH]1[Pt]([NH2])([I])[I] (stereo not drawn) [C2, [1,1′-(hexane-1,6-diyl)bis(3-methylimidazol-2-ylidene)]bis[trans-diiodo(ammonia)platinum]] | able to counteract the cisplatin resistance | significant radiosensitizing properties | significant radiosensitizing properties |  | DNA damage repair after irradiation (γ-H2AX foci) (A2780 cells): induced a delay in the DNA damage repair
CN1C=CN(CCCCCCN2C=CN(C)[CH]2[Pt]([I])([I])[N]2CCOCC2)[CH]1[Pt]([I])([I])[N]1CCOCC1 (stereo not drawn) [C7, [1,1′-(hexane-1,6-diyl)bis(3-methylimidazol-2-ylidene)]bis[trans-diiodo(N-morpholine)platinum]] |  |  |  | improved cytotoxic activity | 
OCCN1C=CN(CCCCCCN2C=CN(CCO)[CH]2[Pt]([I])([I])[NH]C2CCCCC2)[CH]1[Pt]([I])([I])[NH]C1CCCCC1 (stereo not drawn) [C9, {1,1′-(hexane-1,6-diyl)bis[3-(2-hydroxethyl)imidazol-2-ylidene]}bis{[trans-diiodo(N-cyclohexylamine)platinum]}] |  |  |  | improved cytotoxic activity | 
N.N.[Cl][Pt][Cl] [Cisplatin, cisplatin] |  |  |  |  | IC50 ([1]; cisplatin-resistant cell line, 96 h, read-out: IC50 in A780cis cell line): 6000 nM; IC50 [3]: 6 nM; IC50 [4]: 390 ± 40 nM; IC50 [5]: 300 nM; IC50 [6]: 490 ± 50 nM
CN1C=CN(C)[CH]1[Pt]([NH2])([I])[I] [MS113, trans-Diiodo(ammonia)(1,3-dimethylimidazol-2-ylidene)platinum] | it is not the case |  |  |  | 
CN1C=CN(C)[CH]1[Pt]([I])([I])[NH]C1CCCCC1 [MS140, trans-Diiodo(N-cyclohexylamine)(1,3-dimethylimidazol-2-ylidene)platinum] |  | significant radiosensitizing properties | significant radiosensitizing properties |  | 
